Experimental data: US8895761B2, “4-phenylpyrane-3,5-diones, 4-phenylthiopyrane-3,5-diones and 2-phenylcyclohexane-1,3,5-triones as herbicides” (Syngenta Limited, priority 2007, dated 2014)

Experiments:
Assay type in all cases: in vivo
[1] = tested on: Lolium perenne (LOLPE); experiment: Pre-emergence herbicidal glasshouse test, Lolium perenne; details: 312 h, rate 250 g/ha, evaluated after 13 days, scale 100 = total damage to plant, 0 = no damage
Method: (§1) Seeds of a variety of test species were sown in standard soil in pots. After cultivation for one day (pre-emergence) or after 8 days cultivation (post-emergence) under controlled conditions in a glasshouse (at 24/16° C., day/night; 14 hours light; 65% humidity), the plants were sprayed with an aqueous spray solution derived from the formulation of the technical active ingredient in acetone/water (50:50) solution containing 0.5% Tween 20 (polyoxyethelyene sorbitan monolaurate, CAS RN 9005-64-5). The test plants were then grown in a glasshouse under controlled conditions in a glasshouse (at 24/16° C., day/night; 14 hours light; 65% humidity) and watered twice daily. After 13 days for pre and post-emergence, the test was evaluated ([…] to plant; 0=no damage to plant).
(§2) Setaria faberi (SETFA), Lolium perenne (LOLPE), Alopecurus myosuroides (ALOMY), Echinochloa crus-galli (ECHCG) and Avena fatua (AVEFA).

[2] = tested on: Echinochloa crus-galli (ECHCG); experiment: Pre-emergence herbicidal glasshouse test, Echinochloa crus-galli; details: Echinochloa crus-galli, 312 h, rate 250 g/ha, evaluated after 13 days, scale 100 = total damage to plant, 0 = no damage
Method: as §1, §2

[3] = tested on: Avena fatua (AVEFA); experiment: Post-emergence herbicidal glasshouse test, Avena fatua; details: Avena fatua, 312 h, rate 250 g/ha, evaluated after 13 days, scale 100 = total damage to plant, 0 = no damage
Method: as §1, §2

[4] = tested on: Alopecurus myosuroides (ALOMY); experiment: Pre-emergence herbicidal glasshouse test, Alopecurus myosuroides; details: Alopecurus myosuroides, 312 h, rate 250 g/ha, evaluated after 13 days, scale 100 = total damage to plant, 0 = no damage
Method: as §1, §2

[5] = tested on: Lolium perenne (LOLPE); experiment: Post-emergence herbicidal glasshouse test, Lolium perenne; details: 312 h, rate 250 g/ha, evaluated after 13 days, scale 100 = total damage to plant, 0 = no damage
Method: as §1, §2

[6] = tested on: Avena fatua (AVEFA); experiment: Pre-emergence herbicidal glasshouse test, Avena fatua; details: Avena fatua, 312 h, rate 250 g/ha, evaluated after 13 days, scale 100 = total damage to plant, 0 = no damage
Method: as §1, §2

[7] = tested on: Echinochloa crus-galli (ECHCG); experiment: Post-emergence herbicidal glasshouse test, Echinochloa crus-galli; details: Echinochloa crus-galli, 312 h, rate 250 g/ha, evaluated after 13 days, scale 100 = total damage to plant, 0 = no damage
Method: as §1, §2

[8] = tested on: Alopecurus myosuroides (ALOMY); experiment: Post-emergence herbicidal glasshouse test, Alopecurus myosuroides; details: Alopecurus myosuroides, 312 h, rate 250 g/ha, evaluated after 13 days, scale 100 = total damage to plant, 0 = no damage
Method: as §1, §2

Row | Structure (SMILES) | pest or weed control at 250 g/ha [1] | pest or weed control at 250 g/ha [2] | pest or weed control at 250 g/ha [3] | pest or weed control at 250 g/ha [4] | pest or weed control at 250 g/ha [5] | pest or weed control at 250 g/ha [6] | pest or weed control at 250 g/ha [7] | pest or weed control at 250 g/ha [8]
1 | CCc1cc(-c2ccc(Cl)cc2F)ccc1C1=C(O)[C@@]2(C)CC[C@H](O2)C1=O (racemic) [Compound A-14] | 80% | 80% | 100% | 50% | 100% | 50% | 100% | 80%
2 | Cc1cc(-c2ccc(Cl)cc2F)cc(C)c1C1=C(O)[C@@]2(C)CC[C@H](O2)C1=O (racemic) [Compound A-53] | 90% | 100% | 80% | 50% | 100% | 60% | 100% | 90%
3 | CCc1cc(-c2ccc(Cl)cc2Cl)ccc1C1=C(O)[C@@]2(C)CC[C@H](O2)C1=O [Compound A-13] | 20% | 50% | 80% | 0% | 100% | 0% | 100% | 70%
4 | CCc1cc(-c2ccc(Cl)cc2)ccc1C1=C(O)C(C)(C)OC(C)(C)C1=O [Compound A-35] | 80% | 90% | 80% | 50% | 90% | 40% | 100% | 100%
5 | CCc1cc(-c2ccc(Cl)cc2Cl)ccc1C1=C(O)C(C)(C)OC(C)(C)C1=O [Compound A-36] | 0% | 0% | 20% | 0% | 40% | 0% | 60% | 30%
6 | CCc1cc(-c2ccc(Cl)c(Cl)c2)ccc1C1=C(O)C(C)(C)OC(C)(C)C1=O [Compound A-38] | 70% | 50% | 50% | 0% | 70% | 0% | 80% | 80%
7 | CCc1cc(-c2ccc(Cl)s2)ccc1C1=C(O)C(C)(C)OC(C)(C)C1=O [Compound A-41] | 20% | 0% | 0% | 0% | 60% | 30% | 70% | 50%
8 | CCc1cc(-c2ccc(Cl)c(F)c2)ccc1C1=C(O)C(C)(C)OC(C)(C)C1=O [Compound A-42] | 90% | 90% | 80% | 10% | 90% | 20% | 100% | 90%
9 | CCc1cc(-c2ccc(Cl)cn2)ccc1C1=C(O)C(C)(C)OC(C)(C)C1=O [Compound A-43] | 50% | 70% | 70% | 20% | 80% | 30% | 100% | 80%
10 | CCc1cc(-c2ccc(Cl)c(F)c2Cl)ccc1C1=C(O)C(C)(C)OC(C)(C)C1=O [Compound A-46] | 40% | 30% | 0% | 0% | 40% | 0% | 80% | 50%
11 | CCc1cc(-c2ccc(Cl)c(F)c2F)ccc1C1=C(O)C(C)(C)OC(C)(C)C1=O [Compound A-47] | 50% | 30% | 70% | 0% | 60% | 40% | 100% | 90%
12 | CCc1cc(-c2ccc(Cl)c(Cl)c2F)ccc1C1=C(O)C(C)(C)OC(C)(C)C1=O [Compound A-48] | 0% | 0% | 20% | 0% | 30% | 0% | 100% | 50%
13 | CCc1cc(-c2ccc(F)cc2)ccc1C1=C(O)C(C)(C)OC(C)(C)C1=O [Compound A-50] | 100% | 90% | 80% | 60% | 100% | 60% | 100% | 90%
14 | CCc1cc(-c2ccc(Cl)cc2F)ccc1C1=C(O)C(C)(C)OC(C)(C)C1=O [Compound A-51] | 0% | 20% | 60% | 0% | 50% | 0% | 70% | 60%
15 | CCc1cc(-c2ccc(Cl)c(C)c2)ccc1C1=C(O)C(C)(C)OC(C)(C)C1=O [Compound A-52] | 0% | 20% | 20% | 0% | 40% | 0% | 70% | 40%
16 | Cc1cc(-c2cc(Cl)cc(Cl)c2)cc(C)c1C1=C(O)[C@@]2(C)CC[C@H](O2)C1=O [Compound A-54] | 0% | 0% | 30% | 0% | 40% | 0% | 80% | 40%
17 | Cc1cc(-c2ccc(F)cc2)cc(C)c1C1=C(O)[C@@]2(C)CC[C@H](O2)C1=O [Compound A-55] | 90% | 100% | 90% | 70% | 100% | 70% | 100% | 100%
18 | CCc1cc(-c2cc(F)cc(Cl)c2)ccc1C1=C(O)C(C)(C)OC(C)(C)C1=O [Compound A-60] | 0% | 0% | 70% | 0% | 70% | 0% | 90% | 60%
